Ends that are not written are not given here. * marks the point of attachment. Biotin = O=C1N[C@H]2[C@H](CS[C@H]2CCCCC(=O)*)N1; ttds = NCCCOCCOCCOCCCNC(=O)CCC(=O)*
What was measured:
[1] = test system: HeLa cell extract preys; assay: PBM-AP-MS, PBM peptide baits; type: binding, human
Procedure: (§1) HEK293T and HeLa cells were authenticated and found 100% identity to ATCC cat. CRL-3216 and ATCC cat. CCL-2, respectively. Jurkat and HaCat cell lines were not authenticated (original source: ECACC and Deutsches Krebsforschungszentrum DKFZ, respectively). HeLa cells were grown in DMEM (1 g/L glucose, Gibco) medium completed with 5% FCS and 40 μg/mL gentamicin, diluted every 3rd/4th day 1/10. HaCat cells were grown in DMEM (1 g/L glucose, Gibco) medium completed with 10% FCS and 40 μg/mL gentamicin, diluted every 3rd/4th day 1/4. Jurkat cells were grown in RPMI (Gibco) medium completed with 10% FCS and 40 μg/mL gentamicin, diluted every 3rd/4th day 1/12. All cells were kept at 37 °C and 5% CO2. For proteomics analyses cells were seeded on T-175 flasks. After they reached confluency, adherent cells were washed with PBS once and collected by scraping with ice-cold lysis buffer (Hepes-KOH pH 7.5 50 mM, NaCl 150 mM, Triton X-100 1%, complete EDTA-free protease inhibitor cocktail 1×, EDTA 2 mM, TCEP 5 mM, glycerol 10%). Jurkat cells were collected by 1000 g × centrifugation, washed once with PBS, then collected by 1000 g × 5 min centrifugation again and lysed in ice-cold lysis buffer. Lysates were sonicated 4 × 20 s with 1 s long pulses on ice, then incubated rotating at 4 °C for 30 min. Lysates were centrifuged at 12,000 rpm 4 °C for 20 min and supernatant was kept for further analysis. Concentration determination was carried out by standard Bradford method (Bio-Rad Protein Assay Dye Reagent #5000006) using BSA (MP BIomedicals #160069) as control on a Bio-Rad SmartSpec 3000 spectrophotometer instrument.
(§2) For PBM-AP-MS experiments, 30 μl streptavidin resin was mixed with biotin or peptide at 50–60 μM concentration in 6–6.5 resin volume for 60 min to achieve resin saturation. For PDZ-AP-MS experiments, 30 μl streptavidin resin was mixed with biotinylated MBP or MBP-PDZ at 40-50 μM concentration in >1000× resin volume for 60 min to achieve resin saturation. After saturation, resins were washed a single time (ten resin volume, holdup buffer), and were depleted with biotin (1 mM biotin, 5–10 resin volume, 10 min). Finally, resins were washed two times. 0.5 ml 2 mg/ml cell lysate was added to the dry resin (1 mg total input) and were incubated at 4 °C for 2 h. Then, the beads were washed three times with 10 resin volume buffer containing: 50 mM TRIS pH 8.5, 150 mM NaCl, 1% TritonX-100, 10× complete EDTA-free protease inhibitor cocktail, 2 mM EDTA, 1 mM TCEP. Then, the beads were washed two times with ten resin volume buffer containing: 50 mM TRIS pH 8.5, 150 mM NaCl, 1 mM TCEP. Finally, captured protein was eluted from the resin in two steps and the eluted fractions were pooled. For each elution the beads were incubated for 30 min with three resin volume buffer containing: 20 mM TRIS pH8.5, 100 mM NaCl, 500 μM TCEP, 8 M Urea. Between each step, the beads were separated by mild centrifugation and the supernatant was removed by gentle pipetting.
(§3) The samples were precipitated with TCA 20% overnight at 4 °C and centrifuged at 14,000 rpm for 10 min at 4 °C. The protein pellets were washed twice with 1 mL cold acetone and air dried. The protein extracts were solubilized in urea 8 M, reduced with 5 mM TCEP for 30 min, and alkylated with 10 mM iodoacetamide for 30 min in the dark. Double digestion was performed at 37 °C with 500 ng endoproteinase Lys-C for 4 h, followed by fourfold dilution and an overnight digestion with 500 ng trypsin. Peptide mixtures were then desalted on C18 spin-column and dried on Speed-Vacuum.
(§4) Samples were analyzed using an Ultimate 3000 nano-RSLC (Thermo Scientific, San Jose California) coupled in line with a LTQ-Orbitrap ELITE mass spectrometer via a nano-electrospray ionization source (Thermo Scientific, San Jose California). […]

[2] = test system: HaCat cell extract preys; assay: PBM-AP-MS, PBM peptide baits; type: binding, human
Procedure: as §1, §2, §3, §4

HPV30E6 ({Biotin-ttds}-RHTTSTETAV)
Enrichment values compared to biotin controls ([1]; prey AHNAK, PBM peptide bait): 1.1
Enrichment values compared to biotin controls ([1]; prey CASK, PBM peptide bait): 20.8
Enrichment values compared to biotin controls ([1]; prey DLG1, PBM peptide bait): 6.0
Enrichment values compared to biotin controls ([1]; prey DLG5, PBM peptide bait): 0.7
Enrichment values compared to biotin controls ([1]; prey DVL2, PBM peptide bait): 0.7
Enrichment values compared to biotin controls ([1]; prey HTRA1, PBM peptide bait): 1.3
Enrichment values compared to biotin controls ([1]; prey InaDl, PBM peptide bait): 0.8
Enrichment values compared to biotin controls ([1]; prey LAP2, PBM peptide bait): 1.5
Enrichment values compared to biotin controls ([1]; prey LIN7C, PBM peptide bait): 110.0
Enrichment values compared to biotin controls ([1]; prey LMO7, PBM peptide bait): 0.8
Enrichment values compared to biotin controls ([1]; prey LNX2, PBM peptide bait): 1.0
Enrichment values compared to biotin controls ([1]; prey MPDZ, PBM peptide bait): 1.6
Enrichment values compared to biotin controls ([1]; prey MPP5, PBM peptide bait): 4.5
Enrichment values compared to biotin controls ([1]; prey MPP7, PBM peptide bait): 9.1
Enrichment values compared to biotin controls ([1]; prey PDLIM5, PBM peptide bait): 0.9
Enrichment values compared to biotin controls ([1]; prey PDLIM7, PBM peptide bait): 0.9
Enrichment values compared to biotin controls ([1]; prey PSMD9, PBM peptide bait): 0.7
Enrichment values compared to biotin controls ([1]; prey SCRIB, PBM peptide bait): 155.6
Enrichment values compared to biotin controls ([1]; prey SDCBP, PBM peptide bait): 1.3
Enrichment values compared to biotin controls ([1]; prey SIPA1L1, PBM peptide bait): 0.5
Enrichment values compared to biotin controls ([1]; prey SNTB1, PBM peptide bait): 6.5
Enrichment values compared to biotin controls ([1]; prey SNTB2, PBM peptide bait): 1.1
Enrichment values compared to biotin controls ([1]; prey SNX27, PBM peptide bait): 1.4
Enrichment values compared to biotin controls ([1]; prey SYNJ2BP, PBM peptide bait): 15.4
Fold changes HeLa, SYNJ2BP ([1]; prey SYNJ2BP, PBM peptide bait): 15.4
Enrichment values compared to biotin controls ([1]; prey TJP1, PBM peptide bait): 0.7
Enrichment values compared to biotin controls ([2]; prey AHNAK2, PBM peptide bait): 1.2
Enrichment values compared to biotin controls ([2]; prey AHNAK, PBM peptide bait): 1.4
Enrichment values compared to biotin controls ([2]; prey DLG1, PBM peptide bait): 3.4
Enrichment values compared to biotin controls ([2]; prey GORASP2, PBM peptide bait): 0.566
Enrichment values compared to biotin controls ([2]; prey InaDl, PBM peptide bait): 0.8
Enrichment values compared to biotin controls ([2]; prey LAP2, PBM peptide bait): 1.6
Enrichment values compared to biotin controls ([2]; prey LIN7C, PBM peptide bait): 207.8
Enrichment values compared to biotin controls ([2]; prey MAGI3, PBM peptide bait): 2.1
Enrichment values compared to biotin controls ([2]; prey MPP5, PBM peptide bait): 1.9
Enrichment values compared to biotin controls ([2]; prey MPP6, PBM peptide bait): 1.8
Enrichment values compared to biotin controls ([2]; prey MPP7, PBM peptide bait): 42.8
Enrichment values compared to biotin controls ([2]; prey NHERF2, PBM peptide bait): 1.1
Enrichment values compared to biotin controls ([2]; prey NHERF, PBM peptide bait): 2.3
Enrichment values compared to biotin controls ([2]; prey PDLIM1, PBM peptide bait): 2.3
Enrichment values compared to biotin controls ([2]; prey PDLIM2, PBM peptide bait): 1.2
Enrichment values compared to biotin controls ([2]; prey PDLIM4, PBM peptide bait): 1.3
Enrichment values compared to biotin controls ([2]; prey PDLIM5, PBM peptide bait): 0.9
Enrichment values compared to biotin controls ([2]; prey PDLIM7, PBM peptide bait): 0.658
Enrichment values compared to biotin controls ([2]; prey PTPN3, PBM peptide bait): 1.3
Enrichment values compared to biotin controls ([2]; prey SCRIB, PBM peptide bait): 0.8
Enrichment values compared to biotin controls ([2]; prey SNTB2, PBM peptide bait): 9.0
Enrichment values compared to biotin controls ([2]; prey SNX27, PBM peptide bait): 0.9
Enrichment values compared to biotin controls ([2]; prey SYNJ2BP, PBM peptide bait): 21.9
Fold changes HaCat, SYNJ2BP ([2]; prey SYNJ2BP, PBM peptide bait): 21.9
Enrichment values compared to biotin controls ([2]; prey TJP1, PBM peptide bait): 3.8
Enrichment values compared to biotin controls ([2]; prey TJP2, PBM peptide bait): 0.9
Enrichment values compared to biotin controls ([2]; prey TX1B3, PBM peptide bait): 0.9
